# Measured values taken from US7307095B2, “Inhibitors of cathepsin S” (IRM LLC, priority 2003, dated 2007).
# Columns and labels:
# Type in all cases: biochemical
# [1] = target: T1, Cathepsin K (Homo sapiens, UniProt P43235); assay: Cathepsin K inhibition, fluorogenic peptide substrate kinetic assay (selectivity ratio vs cathepsin S); details: ratio of cathepsin K inhibition constant to cathepsin S inhibition constant
# T1 sequence (P43235 115-329): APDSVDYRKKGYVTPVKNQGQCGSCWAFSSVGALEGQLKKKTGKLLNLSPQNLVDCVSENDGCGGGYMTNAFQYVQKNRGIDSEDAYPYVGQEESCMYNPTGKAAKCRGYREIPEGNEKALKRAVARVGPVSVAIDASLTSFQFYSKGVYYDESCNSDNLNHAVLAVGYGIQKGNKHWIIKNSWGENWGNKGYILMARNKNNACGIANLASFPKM
# Method: (§1) Kinetic measurements are performed in a total reaction volume of 30 μl in 384-well microtiter plates. […] Control reactions in the absence of inhibitor are performed in replicates of 24. The reactions are initiated by adding the substrate, acetyl-lysine-histidine-proline-lysine-amino carbamoyl coumarin, to a final concentration of 40 μM. The rate of substrate hydrolysis is measured by monitoring the increase in fluorescence at an excitation wavelength of 380 nm and an emission wavelength of 450 nm that results from cleavage of the aniline bond in the substrate by the enzyme. The apparent inhibition constants for the compounds are determined from the enzyme progress curves ([…]. Elrod, et al. Anal Biochem 2000, 286(1), 45-50) and are then used to calculate the inhibition constants for competitive inhibitors. Selectivity for cathepsin S in the presence of cathepsin isozymes was determined by the ratio of the cathepsin isozyme inhibition constant of a compound of the present invention to the cathepsin S inhibition constant of the same compound.
# [2] = target: Cathepsin S (Homo sapiens, UniProt P25774); assay: Cathepsin S inhibition, fluorogenic peptide substrate kinetic assay; details: Cathepsin S inhibition constant; read-out: Ki Cat. S
# Method: (§2) The optimal substrate for cathepsin S, acetyl-histidine-proline-valine-lysine-amino carbamoyl coumarin, was identified from screening a combinatorial library of fluorogenic peptide substrates (Harris, J. L., B. J. Backes, et al. Proc Natl Acad Sci USA 2000, 97(14), 7754-9). Kinetic measurements are performed in a total reaction volume of 30 μl in 384-well microtiter plates. […] Control reactions in the absence of inhibitor are performed in replicates of 24. The reactions are initiated by adding the substrate, acetyl-histidine-proline-valine-lysine-amino carbamoyl coumarin, to a final concentration of 50 μM. The rate of substrate hydrolysis is measured by monitoring the increase in fluorescence at an excitation wavelength of 380 nm and an emission wavelength of 450 nm that results from cleavage of the aniline bond in the substrate by the enzyme. The apparent inhibition constants for the compounds are determined from the enzyme progress curves (Kuzmic, P., K. C. Elrod, et al. Anal Biochem 2000, 286(1), 45-50) and are then used to calculate the inhibition constants for competitive inhibitors.
# [3] = target: Cathepsin L (Homo sapiens, UniProt P07711); assay: Cathepsin L inhibition, fluorogenic peptide substrate kinetic assay (selectivity ratio vs cathepsin S); details: ratio of cathepsin L inhibition constant to cathepsin S inhibition constant
# Method: as §2, with “cathepsin L, acetyl-histidine-lysine-phenylalanine-lysine-amino” for “cathepsin S, acetyl-histidine-proline-valine-lysine-amino”, “substrate, acetyl-histidine-lysine-phenylalanine-lysine-amino” for “substrate, acetyl-histidine-proline-valine-lysine-amino”, “of 20” for “of 50”, “curves ([…].” for “curves (Kuzmic, P., K. C.”, “inhibitors. Selectivity for cathepsin S in the presence of cathepsin isozymes was determined by the ratio of the cathepsin isozyme inhibition constant of a compound of the present invention to the cathepsin S inhibition constant of the same compound.” for “inhibitors.”
# [4] = target: Cathepsin B (Homo sapiens, UniProt P07858); assay: Cathepsin B inhibition, fluorogenic peptide substrate kinetic assay (selectivity ratio vs cathepsin S); details: ratio of cathepsin B inhibition constant to cathepsin S inhibition constant
# Method: as §1, with “acetyl-histidine-proline-valine-lysine-amino” for “acetyl-lysine-histidine-proline-lysine-amino”, “10” for “40”
# Sequence of Cathepsin L (P07711 114-333, species assumed): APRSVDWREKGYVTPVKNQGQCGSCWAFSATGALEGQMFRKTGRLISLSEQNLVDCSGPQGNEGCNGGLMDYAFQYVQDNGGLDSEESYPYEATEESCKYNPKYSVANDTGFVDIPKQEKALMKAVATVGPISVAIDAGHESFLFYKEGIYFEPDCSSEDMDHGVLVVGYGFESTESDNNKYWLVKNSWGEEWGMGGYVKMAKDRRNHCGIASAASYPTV
# Sequence of Cathepsin S (P25774 115-331, species assumed): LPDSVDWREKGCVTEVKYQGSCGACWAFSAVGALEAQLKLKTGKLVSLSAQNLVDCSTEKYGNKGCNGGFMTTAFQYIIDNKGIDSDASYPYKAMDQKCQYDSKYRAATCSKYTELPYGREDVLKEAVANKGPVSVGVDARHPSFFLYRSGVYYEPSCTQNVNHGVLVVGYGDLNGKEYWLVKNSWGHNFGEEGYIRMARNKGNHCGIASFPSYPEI
Selectivity for Cat. S over Cat. K [1],Ki [2] [nM],Selectivity for Cat. S over Cat. L [3],Selectivity for Cat. S over Cat. B [4],Compound
"+++ (+++, >1000)",< 100,"++ (++, >100)","+++ (+++, >1000)","COc1ccc(NCCNC(=O)[C@H](CC2CCCCC2)Nc2nc3ccccc3s2)cc1 [Example 17, 2-(S)-(Benzothiazol-2-ylamino)-3-cyclohexyl-N-[2-(4-methoxy-phenylamino)-ethyl]-propionamide]"
–,< 100,"+ (+, >10)","+++ (+++, >1000)","CC(C)(C)C[C@H](Nc1nccc2ccccc12)C(=O)NCCN1CCc2cc(F)ccc21 [Example 19, 2-(S)-(Isoquinolin-1-ylamino)-4,4-dimethyl-pentanoic acid [2-(5-fluoro-2,3-dihydro-indol-1-yl)-ethyl]-amide]"
"++ (++, >100)",< 100,"+++ (+++, >1000)","+++ (+++, >1000)","CC(C)(C)C[C@H](Nc1nc2ccccc2o1)C(=O)N[C@H](CN1CCc2cc(F)ccc21)CS(C)(=O)=O [Example 12, (S)-2-(Benzooxazol-2-ylamino)-4,4-dimethyl-pentanoic acid (R)-[2-(5-fluoro-2,3-dihydro-indol-1-yl)-1-methanesulfonylmethyl-ethyl]-amide]"
"+++ (+++, >1000)",< 100,"++ (++, >100)","+++ (+++, >1000)","CCOC(=O)C[C@@H](CN1CCc2cc(F)ccc21)NC(=O)[C@H](CC1CCCCC1)Nc1nc2ccc(Cl)cc2s1 [Example 30, 3-(S)-[2-(S)-(6-Chloro-benzothiazol-2-ylamino)-3-cyclohexyl-propionylamino]-4-(5-fluoro-2,3-dihydro-indol-1-yl)-butyric acid ethyl ester]"
"++ (++, >100)",< 1000,"+ (+, >10)","++ (++, >100)","O=C(NCCN1CCc2cc(F)ccc21)[C@H](CC1CCCCC1)Nc1nc2ccccc2s1 [Example 16, 2-(S)-(Benzothiazol-2-ylamino)-3-cyclohexyl-N-[2-(5-fluoro-2,3-dihydro-indol-1-yl)-ethyl]-propionamide]"
"+ (+, >10)",< 10000,"+ (+, >10)","+ (+, >10)","CC(C)(C)C[C@H](Nc1cnccn1)C(=O)NCCN1CCc2cc(F)ccc21 [Example 18, (S)-4,4-Dimethyl-2-(pyrazin-2-ylamino)-pentanoic acid [2-(5-fluoro-2,3-dihydro-indol-1-yl)-ethyl]-amide]"
"+ (+, >10)",< 10000,–,"+ (+, >10)","Cc1sc(N[C@@H](CC2CCCCC2)C(=O)NCCN2CCc3cc(F)ccc32)nc1-c1ccccc1 [Example 20, (S)-3-Cyclohexyl-N-[2-(5-fluoro-2,3-dihydro-indol-1-yl)-ethyl]-2-(5-methyl-4-phenyl-thiazol-2-ylamino)-propionamide]"
"+ (+, >10)",< 1000,"+ (+, >10)","++ (++, >100)","O=C(NCCNc1ccc(F)cc1)[C@H](CC1CCCCC1)Nc1nc2ccc(Cl)cc2s1 [Example 21, 2-(S)-(6-Chloro-benzothiazol-2-ylamino)-3-cyclohexyl-N-[2-(4-fluoro-phenylamino)-ethyl]-propionamide]"

# Continued, compound first:
Compound,Selectivity for Cat. S over Cat. K [1],Ki [2] [nM],Selectivity for Cat. S over Cat. L [3],Selectivity for Cat. S over Cat. B [4]
"CC(C)(C)C[C@H](Nc1nc2ccccc2o1)C(=O)N[C@@H](CO)CN1CCc2cc(F)ccc21 [Example 7, 2-(S)-(Benzooxazol-2-ylamino)-4,4-dimethyl-pentanoic acid [2-(5-fluoro-2,3-dihydro-indol-1-yl)-1-(R)-hydroxymethyl-ethyl]-amide]","+ (+, >10)",< 100,"+++ (+++, >1000)","+++ (+++, >1000)"
"CC(C)(C)C[C@H](Nc1nc2ccccc2o1)C(=O)N[C@@H](CC(=O)OC(C)(C)C)CN1CCc2cc(F)ccc21 [Example 3, 3-(S)-[2-(S)-(Benzooxazol-2-ylamino)-4,4-dimethyl-pentanoylamino]-4-(5-fluoro-2,3-dihydro-indol-1-yl)-butyric acid tert-butyl ester]","++ (++, >100)",< 1000,"++ (++, >100)","++ (++, >100)"
"CC(C)(C)C[C@H](Nc1nc2ccccc2o1)C(=O)N[C@@H](CC(=O)O)CN1CCc2cc(F)ccc21 [Example 4, 3-(S)-[2-(S)-(Benzooxazol-2-ylamino)-4,4-dimethyl-pentanoylamino]-4-(5-fluoro-2,3-dihydro-indol-1-yl)-butyric acid]","++ (++, >100)",< 100,"+++ (+++, >1000)","+++ (+++, >1000)"
"O=C(N[C@H](CNc1ccc(F)cc1)COCc1ccccc1)[C@H](CC1CCCCC1)Nc1nc2ccccc2o1 [Example 11, 2-(S)-(Benzooxazol-2-ylamino)-N-[1-(R)-benzyloxymethyl-2-(4-fluoro-phenylamino)-ethyl]-3-cyclohexyl-propionamide]","++ (++, >100)",< 100,"++ (++, >100)","++ (++, >100)"
"3-(S)-[2-(S)-(6-Chloro-benzooxazol-2-ylamino)-3-cyclohexyl-propionylamino]-4-(5-fluoro-2,3-dihydro-indol-1-yl)-butyric acid tert-butyl ester [Example 28]","++ (++, >100)",< 1000,"++ (++, >100)","++ (++, >100)"
"CC(C)(C)OC(=O)C[C@@H](CN1CCc2cc(F)ccc21)NC(=O)[C@H](CC1CCCCC1)Nc1nc2ccccc2o1 [Example 9, 3-(S)-[2-(S)-(Benzooxazol-2-ylamino)-3-cyclohexyl-propionylamino]-4-(5-fluoro-2,3-dihydro-indol-1-yl)-butyric acid tert-butyl ester]","++ (++, >100)",< 100,"++ (++, >100)","+++ (+++, >1000)"
"CC(C)(C)C[C@H](Nc1nc2ccccc2o1)C(=O)N[C@@H](COCc1ccccc1)CN1CCc2cc(F)ccc21 [Example 6, 2-(S)-(Benzooxazol-2-ylamino)-4,4-dimethyl-pentanoic acid (R)-[1-benzyloxymethyl-2-(5-fluoro-2,3-dihydro-indol-1-yl)-ethyl]-amide]","+ (+, >10)",< 100,"+++ (+++, >1000)","+++ (+++, >1000)"
